Entries after “also recorded” stand apart in the source; their conditions may differ.
Experiments:
[1] = test system: STAM mice; experiment: STAM model: Sirius red staining, fibrosis area; assay type: in vivo; conditions: for Sirius red-positive area (% of area showing fibrosis): STAM mice liver
Description: (§1) NASH-HCC (STAM™) Model. C57BL/6 (15-day-pregnant female) mice are obtained from Charles River Laboratories Japan (Kanagawa, Japan). Male pups are selected for the study. NASH is induced in male mice by a single subcutaneous injection of 200 μg streptozotocin (STZ, Sigma-Aldrich, USA) solution 2 days after birth, followed by feeding a HFD (57 kcal % fat, cat#: HFD32, CLEA Japan, Japan) beginning at 4 weeks of age. At 5 weeks of age, mice are divided into a control group and one or more treated group (generally 8 mice per group). Animals are sacrificed at 9 weeks of age, and biochemical, histological, and gene expression analyses are performed.
(§2) During weeks 5-9 (starting at day 35±2), test compound is administered (generally orally) at various doses diluted to 10 mL/kg and according to various dosing protocols to treatment groups (8 mice each) while a second group (8 mice) is administered vehicle only. Animals are sacrificed at 9 weeks.
To visualize collagen deposition (a measure of fibrosis), Bouin's fixed left lateral liver sections are stained using picro-Sirius red solution (Waldeck, Germany).
For quantitative analysis of fibrosis area, bright field images of Sirius red-stained sections are captured around the central vein using a digital camera (DFC280; Leica, Germany) at 200-fold magnification, and the positive areas in 5 fields/section are measured using ImageJ software (National Institute of Health, USA). For quantitative analysis of inflammation area, bright field images of F4/80-immunostained sections are captured around the central vein using a digital camera (DFC280; Leica, Germany) at 200-fold magnification, and the positive areas in 5 fields/section are measured using ImageJ software (National Institute of Health, USA).
(§3) Illustrative dose response test groups. Group 1-Normal. Eight normal mice are fed with a normal diet ad libitum without any treatment until 9 weeks of age. Group 2-Vehicle. Eight NASH mice are orally administered vehicle (0.5% w/v methylcellulose+0.2% Tween®80) in a volume of 10 mL/kg twice daily from 5 to 9 week of age. Group 3-solithromycin 5 mg/kg. Eight NASH mice are orally administered vehicle supplemented with solithromycin at a dose of 5 mg/kg in the morning and the vehicle in the evening (5 mg/kg/day) from 5 to 9 weeks of age. Group 4-solithromycin 10 mg/kg. Eight NASH mice are orally administered vehicle supplemented with solithromycin at a dose of 10 mg/kg twice daily (20 mg/kg/day) from 5 to 9 weeks of age. Group 5-solithromycin 25 mg/kg. Eight NASH mice are orally administered vehicle supplemented with solithromycin at a dose of 25 mg/kg twice daily (50 mg/kg/day) from 5 to 9 weeks of age. Group 6-solithromycin 50 mg/kg. Eight NASH mice are orally administered vehicle supplemented with solithromycin at a dose of 50 mg/kg once daily (50 mg/kg/day) from 5 to 9 weeks of age.

[2] = test system: STAM mice; experiment: STAM model: HE staining, NAFLD Activity score; assay type: in vivo; conditions: for NAFLD Activity Score: 5-9 wks
Description: as §1, §2
Histopathological analyses. For HE staining, sections are cut from paraffin blocks of left lateral liver tissue prefixed in Bouin's solution and stained with Lillie-Mayer's Hematoxylin (Muto Pure Chemicals, Japan) and eosin solution (Wako Pure Chemical Industries). NAFLD Activity score (NAS) is calculated according to the criteria of Kleiner (Kleiner D E. et al., Hepatology, 2005; 41:1313). A NAS≧5 with steatosis and hepatocyte ballooning is generally considered diagnostic of NASH.
as §3

[3] = test system: liver mRNA expression levels; experiment: STAM model: quantitative RT-PCR of liver; assay type: in vivo, mice
Description: as §1, §2, §3
Quantitative RT-PCR. Total RNA is extracted from liver samples using RNAiso (Takara Bio, Japan) according to the manufacturer's instructions. One μg of RNA is reverse-transcribed using a reaction mixture containing 4.4 mM MgCl2 (Roche, Switzerland), 40 U RNase inhibitor (Toyobo, Japan), 0.5 mM dNTP (Promega, USA), 6.28 μM random hexamer (Promega), 5× first strand buffer (Promega), 10 mM dithiothreitol (Invitrogen) and 200 U MMLV-RT (Invitrogen) in a final volume of 20 μL. The reaction is carried out for 1 hour at 37° C., followed by 5 minutes at 99° C. Real-time PCR is performed using real-time PCR DICE and SYBR premix Taq (Takara Bio). To calculate the relative mRNA expression level, the expression of each gene is normalized to that of reference gene 36B4 (gene symbol: Rplp0). PCR-primer sets are described in copending U.S. provisional application No. 62/086,911, the disclosure of which is incorporated herein by reference.

[4] = STAM mice liver, 5 mg/kg, listed as SOLI
[5] = STAM mice liver, 10 mg/kg, listed as SOLI
[6] = STAM mice liver, 25 mg/kg, listed as SOLI

Compound: CC[C@H]1OC(=O)[C@@](C)(F)C(=O)[C@H](C)[C@@H](O[C@@H]2O[C@H](C)C[C@H](N(C)C)[C@H]2O)[C@](C)(OC)C[C@@H](C)C(=O)[C@H](C)[C@H]2N(CCCCn3cc(-c4cccc(N)c4)nn3)C(=O)O[C@]12C [solithromycin]
- Sirius red-positive area (% of area showing fibrosis) ([1]; 5 mg/kg): no statistically significant differences
- Sirius red-positive area (% of area showing fibrosis) ([1]; 5 mg/kg, listed as SOLI): 0.85 ± 0.28%
- Sirius red-positive area (% of area showing fibrosis) ([1]; 10 mg/kg): tended to decrease
- Sirius red-positive area (% of area showing fibrosis) ([1]; 10 mg/kg, listed as SOLI): 0.72 ± 0.27%
- Sirius red-positive area (% of area showing fibrosis) ([1]; 25 mg/kg): significantly decreased; also recorded: Statistically significant reduced fibrosis
- Sirius red-positive area (% of area showing fibrosis) ([1]; 25 mg/kg, listed as SOLI): 0.65 ± 0.27 %
- Fibrosis area (Sirius red-positive area) compared to vehicle group ([1]; STAM mice, Group 6 (50 mg/kg q.d.)): significantly decreased
- NAFLD Activity Score ([2]; 5 mg/kg q.d. oral, 5 mg/kg): no statistically significant difference
- NAFLD Activity Score ([2]; 5 mg/kg q.d. oral, listed as Solithromycin, 5 mg/kg): 4.8 ± 0.9
- NAFLD Activity Score ([2]; 10 mg/kg b.i.d. oral, 10 mg/kg): significantly decreased
- NAFLD Activity Score ([2]; 10 mg/kg b.i.d. oral, listed as Solithromycin, 10 mg/kg): 3.3 ± 0.9
- NAFLD Activity Score ([2]; 25 mg/kg b.i.d. oral, 25 mg/kg): significantly decreased
- NAFLD Activity Score ([2]; 25 mg/kg b.i.d. oral, listed as Solithromycin, 25 mg/kg): 2.9 ± 1.0
- NAFLD Activity Score ([2]; 50 mg/kg q.d. oral, 50 mg/kg): significant reduction
- NAFLD Activity Score ([2]; 50 mg/kg q.d. oral, listed as Solithromycin, 50 mg/kg): 3.0 ± 0.9
- Hepatocellular ballooning and inflammatory cell infiltration compared to vehicle group ([2]; Groups 4-6): significant improvements
- Col1a2/36B4 relative mRNA expression ([3]; STAM mice liver, 5 mg/kg): 3.6 ± 1.7
- FBPase/36B4 relative mRNA expression ([3]; STAM mice liver, 5 mg/kg): 1.2 ± 0.2
- G6pc/36B4 relative mRNA expression ([3]; STAM mice liver, 5 mg/kg): 3.0 ± 0.7
- Gck/36B4 relative mRNA expression ([3]; STAM mice liver, 5 mg/kg): 0.5 ± 0.2
- Glut 2/36B4 relative mRNA expression ([3]; STAM mice liver, 5 mg/kg): 0.8 ± 0.1
- MCP-1/36B4 relative mRNA expression ([3]; STAM mice liver, 5 mg/kg): no statistically significant differences
- MMP-9/36B4 relative mRNA expression ([3]; STAM mice liver, 5 mg/kg): no statistically significant differences
- Pck1/36B4 relative mRNA expression ([3]; STAM mice liver, 5 mg/kg): 1.5 ± 0.1
- TGF-β/36B4 relative mRNA expression ([3]; STAM mice liver, 5 mg/kg): 2.1 ± 0.4
- TNF-α/36B4 relative mRNA expression ([3]; STAM mice liver, 5 mg/kg): 3.1 ± 1.2
- Timp-1/36B4 relative mRNA expression ([3]; STAM mice liver, 5 mg/kg): 16.0 ± 15.7
- α-SMA/36B4 relative mRNA expression ([3]; STAM mice liver, 5 mg/kg): 3.8 ± 1.9
- MCP-1/36B4 relative mRNA expression [3, 4]: 7.2 ± 4.0
- MMP-9/36B4 relative mRNA expression [3, 4]: 2.9 ± 0.8
- Col1a2/36B4 relative mRNA expression ([3]; STAM mice liver, 10 mg/kg): 2.8 ± 1.0
- FBPase/36B4 relative mRNA expression ([3]; STAM mice liver, 10 mg/kg): 1.2 ± 0.2
- G6pc/36B4 relative mRNA expression ([3]; STAM mice liver, 10 mg/kg): 2.4 ± 0.5
- Gck/36B4 relative mRNA expression ([3]; STAM mice liver, 10 mg/kg): 0.4 ± 0.2
- Glut 2/36B4 relative mRNA expression ([3]; STAM mice liver, 10 mg/kg): tended to down-regulated
- MCP-1/36B4 relative mRNA expression ([3]; STAM mice liver, 10 mg/kg): no statistically significant differences
- MMP-9/36B4 relative mRNA expression ([3]; STAM mice liver, 10 mg/kg): no statistically significant differences
- Pck1/36B4 relative mRNA expression ([3]; STAM mice liver, 10 mg/kg): 1.5 ± 0.4
- TGF-β/36B4 relative mRNA expression ([3]; STAM mice liver, 10 mg/kg): 1.8 ± 0.4
- TNF-α/36B4 relative mRNA expression ([3]; STAM mice liver, 10 mg/kg): 3.0 ± 0.7
- Timp-1/36B4 relative mRNA expression ([3]; STAM mice liver, 10 mg/kg): 11.9 ± 6.8
- α-SMA/36B4 relative mRNA expression ([3]; STAM mice liver, 10 mg/kg): 3.7 ± 1.0
- Glut 2/36B4 relative mRNA expression [3, 5]: 0.8 ± 0.1
- MCP-1/36B4 relative mRNA expression [3, 5]: 5.2 ± 1.9
- MMP-9/36B4 relative mRNA expression [3, 5]: 3.0 ± 1.1
- Col1a2/36B4 relative mRNA expression ([3]; STAM mice liver, 25 mg/kg): 2.9 ± 1.2
- FBPase/36B4 relative mRNA expression ([3]; STAM mice liver, 25 mg/kg): Statistically significant reduced
- G6pc/36B4 relative mRNA expression ([3]; STAM mice liver, 25 mg/kg): Statistically significant reduced
- Gck/36B4 relative mRNA expression ([3]; STAM mice liver, 25 mg/kg): 0.6 ± 0.4
- Glut 2/36B4 relative mRNA expression ([3]; STAM mice liver, 25 mg/kg): 0.9 ± 0.1
- MCP-1/36B4 relative mRNA expression ([3]; STAM mice liver, 25 mg/kg): no statistically significant differences
- MMP-9/36B4 relative mRNA expression ([3]; STAM mice liver, 25 mg/kg): no statistically significant differences
- Pck1/36B4 relative mRNA expression ([3]; STAM mice liver, 25 mg/kg): 1.3 ± 0.6
- TGF-β/36B4 relative mRNA expression ([3]; STAM mice liver, 25 mg/kg): 1.8 ± 0.5
- TNF-α/36B4 relative mRNA expression ([3]; STAM mice liver, 25 mg/kg): 3.4 ± 1.3
- Timp-1/36B4 relative mRNA expression ([3]; STAM mice liver, 25 mg/kg): 11.0 ± 8.6
- α-SMA/36B4 relative mRNA expression ([3]; STAM mice liver, 25 mg/kg): 3.3 ± 1.2
- FBPase/36B4 relative mRNA expression [3, 6]: 1.0 ± 0.2
- G6pc/36B4 relative mRNA expression [3, 6]: 1.9 ± 0.7
- MCP-1/36B4 relative mRNA expression [3, 6]: 4.9 ± 1.9
- MMP-9/36B4 relative mRNA expression [3, 6]: 2.6 ± 0.5
- FBPase mRNA expression levels compared to vehicle group ([3]; STAM mice liver, all doses): significantly down-regulated
- G6pc mRNA expression levels compared to vehicle group ([3]; STAM mice liver, all doses): significantly down-regulated
- Collagen Type 1 mRNA expression levels compared to vehicle group ([3]; STAM mice liver, any doses): no significant differences
- Gck mRNA expression levels compared to vehicle group ([3]; STAM mice liver, any doses): no significant differences
- Pck1 mRNA expression levels compared to vehicle group ([3]; STAM mice liver, any doses): no significant differences
- TGF-β mRNA expression levels compared to vehicle group ([3]; STAM mice liver, any doses): no significant differences
- TIMP-1 mRNA expression levels compared to vehicle group ([3]; STAM mice liver, any doses): no significant differences
- TNF-α mRNA expression levels compared to vehicle group ([3]; STAM mice liver, any doses): no significant differences
- α-SMA mRNA expression levels compared to vehicle group ([3]; STAM mice liver, any doses): no significant differences
- Glut 2 mRNA expression levels compared to vehicle group ([3]; STAM mice liver, solithromycin groups other than 10 mg/kg): no significant differences
- MMP-9 mRNA expression levels in the liver ([3]; STAM mice, 50 mg/kg q.d., normalized vehicle 1.00±0.34): 0.59±0.25
- MCP-1 mRNA expression levels in the liver ([3]; STAM mice, 50 mg/kg q.d., normalized vehicle 1.00±0.42): 0.64±0.14

— patent US20170165286A1, “COMPOSITIONS AND METHODS FOR TREATING DIABETES AND LIVER DISEASES” (Cempra Pharmaceuticals, Inc., priority 2014, published 2017)
